Results as given in PubChem BioAssay (NCI).
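Dose response: 5 concentrations. Exposure: 48 h. Format: 96-well plates. Endpoint: linear interpolation; highest concentration if not reached. GI50 = concentration required for 50% inhibition of growth. The concentration for full growth arrest is given as TGI.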

Tests used:
Assay in all cases: NCI-60 cell line screen, 48 h
[1] = system: MOLT-4 leukemia
[2] = system: DMS 114 small cell lung
[3] = system: PC-3 prostate
[4] = system: DMS 273 small cell lung
[5] = system: MCF7 breast
[6] = system: SNB-19 CNS
[7] = system: LXFL 529 NSCLC
[8] = system: BT-549 breast
[9] = system: CAKI-1 renal
[10] = system: A498 renal
[11] = system: NCI-H23 lung
[12] = system: RPMI-8226 leukemia
[13] = system: SK-MEL-5 melanoma
[14] = system: TK-10 renal
[15] = system: UACC-257 melanoma
[16] = system: DLD-1 colon
[17] = system: K-562 leukemia
[18] = system: SF-295 CNS
[19] = system: RXF 393 renal
[20] = system: 786-0 renal
[21] = system: SK-MEL-28 melanoma
[22] = system: LOX IMVI melanoma
[23] = system: OVCAR-4 ovarian
[24] = system: HCT-116 colon
[25] = system: SNB-75 CNS
[26] = system: SK-MEL-2 melanoma
[27] = system: KM12 colon
[28] = system: HT29 colon
[29] = system: UACC-62 melanoma
[30] = system: HS 578T breast
[31] = system: NCI-H226 lung
[32] = system: NCI/ADR-RES ovarian
[33] = system: A549 NSCLC
[34] = system: XF 498 CNS
[35] = system: MDA-MB-231 breast
[36] = system: KM20L2 colon
[37] = system: DU-145 prostate
[38] = system: EKVX NSCLC
[39] = system: OVCAR-3 ovarian
[40] = system: UO-31 renal
[41] = system: HCT-15 colon
[42] = system: IGROV1 ovarian
[43] = system: M19-MEL melanoma
[44] = system: NCI-H460 lung
[45] = system: MALME-3M melanoma
[46] = system: OVCAR-8 ovarian
[47] = system: HOP-18 NSCLC
[48] = system: HOP-92 NSCLC
[49] = system: CCRF-CEM leukemia
[50] = system: HOP-62 NSCLC
[51] = system: T-47D breast
[52] = system: OVCAR-5 ovarian
[53] = system: SF-268 CNS
[54] = system: SN12C renal
[55] = system: SF-539 CNS
[56] = system: SR leukemia
[57] = system: M14 melanoma
[58] = system: HL-60(TB) leukemia
[59] = system: ACHN renal
[60] = system: SW-620 colon
[61] = system: MDA-MB-435
[62] = system: COLO 205 colon
[63] = system: HCC-2998 colon
[64] = system: RXF-631 renal
[65] = system: U251 CNS
[66] = system: SNB-78 CNS
[67] = system: SK-OV-3 ovarian
[68] = system: NCI-H522 lung

CC(C)(C)c1cc(C(=O)O)c2c(c1)C(=O)OC2(c1ccccc1)c1ccccc1C(=O)O (centres undefined)
TGI [1]: > 100 µM | TGI [2]: > 100 µM | GI50 [3]: > 100 µM | TGI [3]: > 100 µM | TGI [4]: > 100 µM | GI50 [5]: > 100 µM | TGI [5]: > 100 µM | TGI [6]: > 100 µM | TGI [7]: > 100 µM | GI50 [8]: > 100 µM | TGI [8]: > 100 µM | TGI [9]: > 100 µM | GI50 [10]: > 100 µM | TGI [10]: > 100 µM | TGI [11]: > 100 µM | GI50 [12]: > 100 µM | TGI [12]: > 100 µM | GI50 [13]: > 100 µM | TGI [13]: > 100 µM | TGI [14]: > 100 µM | TGI [15]: > 100 µM | TGI [16]: > 100 µM | TGI [17]: > 100 µM | TGI [18]: > 100 µM | TGI [19]: > 100 µM | TGI [20]: > 100 µM | TGI [21]: > 100 µM | TGI [22]: > 100 µM | TGI [23]: > 100 µM | TGI [24]: > 100 µM | TGI [25]: > 100 µM | TGI [26]: > 100 µM | TGI [27]: > 100 µM | TGI [28]: > 100 µM | TGI [29]: > 100 µM | GI50 [30]: > 100 µM | TGI [30]: > 100 µM | TGI [31]: > 100 µM | GI50 [32]: > 100 µM | TGI [32]: > 100 µM | TGI [33]: > 100 µM | TGI [34]: > 100 µM | GI50 [35]: > 100 µM | TGI [35]: > 100 µM | TGI [36]: > 100 µM | GI50 [37]: > 100 µM | TGI [37]: > 100 µM | TGI [38]: > 100 µM | TGI [39]: > 100 µM | TGI [40]: > 100 µM | TGI [41]: > 100 µM | GI50 [42]: > 100 µM | TGI [42]: > 100 µM | TGI [43]: > 100 µM | TGI [44]: > 100 µM | TGI [45]: > 100 µM | TGI [46]: > 100 µM | TGI [47]: > 100 µM | TGI [48]: > 100 µM | TGI [49]: > 100 µM | TGI [50]: > 100 µM | GI50 [51]: > 100 µM | TGI [51]: > 100 µM | TGI [52]: > 100 µM | TGI [53]: > 100 µM | TGI [54]: > 100 µM | TGI [55]: > 100 µM | TGI [56]: > 100 µM | TGI [57]: > 100 µM | TGI [58]: > 100 µM | TGI [59]: > 100 µM | TGI [60]: > 100 µM | GI50 [61]: > 100 µM | TGI [61]: > 100 µM | TGI [62]: > 100 µM | TGI [63]: > 100 µM

C/C(=N\NC(=O)C(N)=O)c1c(O)cc(C)oc1=O
TGI [1]: > 100 µM | TGI [6]: > 100 µM | TGI [7]: > 100 µM | TGI [10]: > 100 µM | TGI [11]: > 100 µM | TGI [13]: > 100 µM | TGI [14]: > 100 µM | TGI [15]: > 100 µM | TGI [16]: > 100 µM | TGI [17]: > 100 µM | TGI [18]: > 100 µM | TGI [20]: > 100 µM | TGI [21]: > 100 µM | TGI [64]: > 100 µM | TGI [22]: > 100 µM | TGI [23]: > 100 µM | TGI [24]: > 100 µM | TGI [25]: > 100 µM | TGI [26]: > 100 µM | TGI [27]: > 100 µM | TGI [28]: > 100 µM | TGI [29]: > 100 µM | TGI [31]: > 100 µM | TGI [33]: > 100 µM | TGI [36]: > 100 µM | TGI [38]: > 100 µM | TGI [65]: > 100 µM | TGI [40]: > 100 µM | TGI [41]: > 100 µM | TGI [42]: > 100 µM | TGI [43]: > 100 µM | TGI [44]: > 100 µM | TGI [45]: > 100 µM | TGI [46]: > 100 µM | TGI [48]: > 100 µM | TGI [49]: > 100 µM | TGI [50]: > 100 µM | TGI [53]: > 100 µM | TGI [66]: > 100 µM | TGI [54]: > 100 µM | TGI [55]: > 100 µM | TGI [56]: > 100 µM | TGI [67]: > 100 µM | TGI [57]: > 100 µM | TGI [58]: > 100 µM | TGI [59]: > 100 µM | TGI [60]: > 100 µM | TGI [63]: > 100 µM

CC1CCC2(C)C(CC=C(C=O)C2(O)C=O)C12CO2 (centres undefined)
TGI [1]: 5.83 µM | TGI [2]: 4.84 µM | TGI [4]: 7.61 µM | TGI [6]: 22.5 µM | TGI [7]: 3.33 µM | TGI [9]: 11 µM | TGI [10]: 20.1 µM | TGI [11]: 5.83 µM | TGI [12]: 6.83 µM | TGI [14]: 5.19 µM | TGI [15]: 3.79 µM | TGI [17]: 4.67 µM | TGI [18]: 13.9 µM | TGI [19]: 2.85 µM | TGI [20]: 5.83 µM | TGI [21]: 3.97 µM | TGI [64]: 5.77 µM | TGI [22]: 7.47 µM | TGI [23]: 5.2 µM | TGI [24]: 6.65 µM | TGI [26]: 8.53 µM | TGI [27]: 11.4 µM | TGI [28]: 8.03 µM | TGI [29]: 4.02 µM | TGI [31]: 4.99 µM | TGI [33]: 26.4 µM | TGI [34]: 7.21 µM | TGI [68]: 5.89 µM | TGI [36]: 6.09 µM | TGI [38]: 23.3 µM | TGI [65]: 9.37 µM | TGI [39]: 2.6 µM | TGI [40]: 5.69 µM | TGI [41]: 5.95 µM | TGI [42]: 7.72 µM | TGI [43]: 5.75 µM | TGI [44]: 7.7 µM | TGI [45]: 8.74 µM | TGI [46]: 6.69 µM | TGI [48]: 5.29 µM | TGI [49]: 4.01 µM | TGI [50]: 40.3 µM | TGI [52]: 8.03 µM | TGI [53]: 18 µM | TGI [66]: 5.46 µM | TGI [54]: 8.59 µM | TGI [55]: 4.52 µM | TGI [56]: 5.33 µM | TGI [67]: 10.2 µM | TGI [57]: 6.29 µM | TGI [58]: 2.92 µM | TGI [59]: 3.93 µM | TGI [60]: 8.77 µM | TGI [62]: 4.29 µM | TGI [63]: 11.3 µM
